Measured values: PMC6372279 (eLife, 2019)
Bridge positions count the residues as written; N and C are the ends. Square brackets hold non-standard residues; d marks the D form. Ends that are not written are not given here. I, II: the chains in the order shown. Gla = N[C@@H](CC(C(=O)O)C(=O)O)C(=O)O

How the values were obtained:
human IR-B = human IR-B (Homo sapiens, UniProt P06213); experiment: cell-based
[1] = target: human insulin receptor isoform B (hIR-B) (Homo sapiens, UniProt P06213); experiment: biochemical; type: binding
Sequence of human insulin receptor isoform B (hIR-B) (P06213 28-758 limits assumed): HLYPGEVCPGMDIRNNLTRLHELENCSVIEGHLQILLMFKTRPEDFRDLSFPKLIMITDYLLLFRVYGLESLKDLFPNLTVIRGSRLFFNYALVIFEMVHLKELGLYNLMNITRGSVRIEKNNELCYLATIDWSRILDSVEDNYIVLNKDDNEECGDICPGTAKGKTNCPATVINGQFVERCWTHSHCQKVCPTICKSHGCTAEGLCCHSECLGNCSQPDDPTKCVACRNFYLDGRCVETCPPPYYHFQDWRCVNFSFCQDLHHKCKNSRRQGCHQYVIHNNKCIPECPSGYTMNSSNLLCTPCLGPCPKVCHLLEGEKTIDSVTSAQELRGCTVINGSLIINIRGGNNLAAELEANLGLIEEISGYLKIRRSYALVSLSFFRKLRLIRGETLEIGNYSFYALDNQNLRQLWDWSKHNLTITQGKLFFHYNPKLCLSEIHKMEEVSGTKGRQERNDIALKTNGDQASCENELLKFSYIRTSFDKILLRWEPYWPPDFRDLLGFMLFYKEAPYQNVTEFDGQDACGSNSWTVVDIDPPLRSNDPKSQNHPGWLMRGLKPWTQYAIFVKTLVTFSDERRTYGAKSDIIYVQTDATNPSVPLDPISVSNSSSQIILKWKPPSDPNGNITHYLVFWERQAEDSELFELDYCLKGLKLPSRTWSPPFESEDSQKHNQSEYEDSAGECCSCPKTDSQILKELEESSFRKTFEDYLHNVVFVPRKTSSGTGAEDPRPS
Sequence of human insulin receptor isoform B (hIR-B) (P06213 763-1382 partner limits assumed): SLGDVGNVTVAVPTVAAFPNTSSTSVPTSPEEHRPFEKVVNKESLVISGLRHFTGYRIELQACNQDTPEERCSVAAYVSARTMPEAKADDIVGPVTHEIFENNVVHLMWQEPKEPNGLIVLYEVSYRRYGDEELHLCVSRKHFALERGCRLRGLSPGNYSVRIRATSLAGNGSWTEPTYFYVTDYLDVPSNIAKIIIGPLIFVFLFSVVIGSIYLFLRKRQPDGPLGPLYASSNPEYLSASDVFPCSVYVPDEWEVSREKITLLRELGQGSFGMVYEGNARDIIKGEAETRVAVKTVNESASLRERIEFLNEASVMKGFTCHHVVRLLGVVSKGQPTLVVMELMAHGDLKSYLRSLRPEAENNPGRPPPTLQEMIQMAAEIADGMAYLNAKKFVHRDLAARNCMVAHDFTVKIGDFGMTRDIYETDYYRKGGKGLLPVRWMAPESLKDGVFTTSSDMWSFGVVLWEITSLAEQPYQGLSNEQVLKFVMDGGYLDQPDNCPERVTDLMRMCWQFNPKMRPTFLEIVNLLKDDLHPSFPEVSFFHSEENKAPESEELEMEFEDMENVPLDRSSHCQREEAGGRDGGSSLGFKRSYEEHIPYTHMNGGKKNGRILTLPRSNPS

[2] = tested on: STZ-induced hyperglycemic mice; conditions: mouse, in vivo

Sequence of human IR-B (P06213 28-758 limits assumed): as the sequence (P06213 28-758 limits assumed) above
Sequence of human IR-B (P06213 763-1382 partner limits assumed): as the sequence (P06213 763-1382 partner limits assumed) above

Substance: I: NSDTPKHRCGSELADQYVQLCH-NH2 / II: GIV[Gla]VCCDNPCTVATLRTFCH-OH (disulfide I:9-II:7, I:21-II:20, II:6-II:11) [Con-Ins G3]
- potency against the human IR-B compared with Con-Ins G1 (in words) (human IR-B): more than one order of magnitude less potent

Substance: I: NSDTPWNRCGSQITDSYR[Gla]LCPH / II: GVV[Gla]HCCKRACSNA[Gla]FMQFC-NH2 (disulfide I:9-II:7, I:21-II:20, II:6-II:11) [Con-Ins T2]
- EC50 (human IR-B): 15.5 nM
- IC50 [1]: 31.8 nM

Substance: I: SDSGTTLVRRRLCGS[Gla]LVTYLGELCLGN / II: GIV[Gla]DCCYNDCTDEKLKEYCHTLQ-NH2 (disulfide I:13-II:7, I:25-II:20, II:6-II:11) [Con-Ins K1]
- Reversal of hyperglycemia (in words) [2]: effectively reversed hyperglycemia
- Blood glucose, starting value ([2]; SEM): 404 (±25) mg/dL
